Test results published in patent US12544395B2, “Combination compositions comprising a beta-lactamase inhibitor and uses thereof” (priority 2018, dated 2026).

How the values were obtained:
Assay type in all cases: cell-based
[1] = tested on: panel of ESBL-producing Enterobacteriaceae (40 strains); test: Broth microdilution MIC50/MIC90 summary over the panel
K. pneumoniae KP 3 = test: Broth microdilution MIC (strain enzymes: SHV-1, TEM-1)
K. pneumoniae 115468 = test: Broth microdilution MIC (strain enzymes: TEM-1)
K. pneumoniae 304487 = test: Broth microdilution MIC (strain enzymes: SHV-12,TEM-1)
K. pneumoniae ESBL 8 #2 = test: Broth microdilution MIC (strain enzymes: SHV-12, TEM-1); details: with inhibitor at 1 μg/mL

CCC(=O)N[C@H]1Cc2cccc(C(=O)O)c2OB1O [Compound 2, (R)-2-hydroxy-3-propionamido-3,4-dihydro-2H-benzo[e][1,2]oxaborinine-8-carboxylic acid]
Cefixime MIC90 ([1]; with inhibitor at 1 μg/mL): 4 µg/mL | Cefpodoxime MIC50 ([1]; with inhibitor at 1 μg/mL): 1 µg/mL | Cefpodoxime MIC90 ([1]; with inhibitor at 1 μg/mL): 8 µg/mL | Ceftibuten MIC50 ([1]; with inhibitor at 1 μg/mL): 0.125 µg/mL | Ceftibuten MIC90 ([1]; with inhibitor at 1 μg/mL): 0.5 µg/mL | Cephalexin MIC50 ([1]; with inhibitor at 1 μg/mL): 8 µg/mL | Cephalexin MIC90 ([1]; with inhibitor at 1 μg/mL): 32 µg/mL | Cefdinir MIC50 ([1]; with inhibitor at 2 μg/mL): 0.5 µg/mL | Cefdinir MIC90 ([1]; with inhibitor at 2 μg/mL): 2 µg/mL | Cefixime MIC50 ([1]; with inhibitor at 2 μg/mL): 0.5 µg/mL | Cefixime MIC90 ([1]; with inhibitor at 2 μg/mL): 4 µg/mL | Cefpodoxime MIC50 ([1]; with inhibitor at 2 μg/mL): 1 µg/mL | Cefpodoxime MIC90 ([1]; with inhibitor at 2 μg/mL): 2 µg/mL | Ceftibuten MIC50 ([1]; with inhibitor at 2 μg/mL): 0.125 µg/mL | Ceftibuten MIC90 ([1]; with inhibitor at 2 μg/mL): 0.25 µg/mL | Cephalexin MIC50 ([1]; with inhibitor at 2 μg/mL): 8 µg/mL | Cephalexin MIC90 ([1]; with inhibitor at 2 μg/mL): 32 µg/mL | Cefdinir MIC50 ([1]; with inhibitor at 4 μg/mL): 0.5 µg/mL | Cefdinir MIC90 ([1]; with inhibitor at 4 μg/mL): 2 µg/mL | Cefixime MIC50 ([1]; with inhibitor at 4 μg/mL): 0.25 µg/mL | Cefixime MIC90 ([1]; with inhibitor at 4 μg/mL): 1 µg/mL | Cefpodoxime MIC50 ([1]; with inhibitor at 4 μg/mL): 1 µg/mL | Cefpodoxime MIC90 ([1]; with inhibitor at 4 μg/mL): 2 µg/mL | Ceftibuten MIC50 ([1]; with inhibitor at 4 μg/mL): 0.125 µg/mL | Ceftibuten MIC90 ([1]; with inhibitor at 4 μg/mL): 0.25 µg/mL | Cephalexin MIC50 ([1]; with inhibitor at 4 μg/mL): 8 µg/mL | Cephalexin MIC90 ([1]; with inhibitor at 4 μg/mL): 16 µg/mL | MIC of cefalexin (LEX) (K. pneumoniae KP 3; with inhibitor at 1 μg/mL): 0.5 µg/mL | MIC of cefdinir (CDR) (K. pneumoniae KP 3; with inhibitor at 1 μg/mL): 0.5 µg/mL | MIC of cefixime (CFM) (K. pneumoniae KP 3; with inhibitor at 1 μg/mL): 4 µg/mL | MIC of ceftibuten (CTB) (K. pneumoniae KP 3; with inhibitor at 1 μg/mL): 0.25 µg/mL | MIC of cefalexin (LEX) (K. pneumoniae KP 3; with inhibitor at 2 μg/mL): 0.25 µg/mL | MIC of cefdinir (CDR) (K. pneumoniae KP 3; with inhibitor at 2 μg/mL): 0.25 µg/mL | MIC of cefixime (CFM) (K. pneumoniae KP 3; with inhibitor at 2 μg/mL): 4 µg/mL | MIC of ceftibuten (CTB) (K. pneumoniae KP 3; with inhibitor at 2 μg/mL): 0.25 µg/mL | MIC of cefalexin (LEX) (K. pneumoniae KP 3; with inhibitor at 4 μg/mL): 0.5 µg/mL | MIC of cefdinir (CDR) (K. pneumoniae KP 3; with inhibitor at 4 μg/mL): 0.5 µg/mL | MIC of cefixime (CFM) (K. pneumoniae KP 3; with inhibitor at 4 μg/mL): 2 µg/mL | MIC of ceftibuten (CTB) (K. pneumoniae KP 3; with inhibitor at 4 μg/mL): 0.125 µg/mL | MIC of cefalexin (LEX) (K. pneumoniae 115468; with inhibitor at 1 μg/mL): 0.5 µg/mL | MIC of cefdinir (CDR) (K. pneumoniae 115468; with inhibitor at 1 μg/mL): 0.5 µg/mL | MIC of cefixime (CFM) (K. pneumoniae 115468; with inhibitor at 1 μg/mL): 2 µg/mL | MIC of ceftibuten (CTB) (K. pneumoniae 115468; with inhibitor at 1 μg/mL): 0.06 µg/mL | MIC of cefalexin (LEX) (K. pneumoniae 115468; with inhibitor at 2 μg/mL): 0.25 µg/mL | MIC of cefdinir (CDR) (K. pneumoniae 115468; with inhibitor at 2 μg/mL): 0.25 µg/mL | MIC of cefixime (CFM) (K. pneumoniae 115468; with inhibitor at 2 μg/mL): 0.5 µg/mL | MIC of ceftibuten (CTB) (K. pneumoniae 115468; with inhibitor at 2 μg/mL): 0.06 µg/mL | MIC of cefalexin (LEX) (K. pneumoniae 115468; with inhibitor at 4 μg/mL): 0.125 µg/mL | MIC of cefdinir (CDR) (K. pneumoniae 115468; with inhibitor at 4 μg/mL): 0.125 µg/mL | MIC of cefixime (CFM) (K. pneumoniae 115468; with inhibitor at 4 μg/mL): 0.5 µg/mL | MIC of ceftibuten (CTB) (K. pneumoniae 115468; with inhibitor at 4 μg/mL): 0.06 µg/mL | MIC of cefalexin (LEX) (K. pneumoniae 304487; with inhibitor at 1 μg/mL): 1 µg/mL | MIC of cefdinir (CDR) (K. pneumoniae 304487; with inhibitor at 1 μg/mL): 1 µg/mL | MIC of cefixime (CFM) (K. pneumoniae 304487; with inhibitor at 1 μg/mL): 1 µg/mL | MIC of ceftibuten (CTB) (K. pneumoniae 304487; with inhibitor at 1 μg/mL): 0.25 µg/mL | MIC of cefalexin (LEX) (K. pneumoniae 304487; with inhibitor at 2 μg/mL): 1 µg/mL | MIC of cefdinir (CDR) (K. pneumoniae 304487; with inhibitor at 2 μg/mL): 1 µg/mL | MIC of cefixime (CFM) (K. pneumoniae 304487; with inhibitor at 2 μg/mL): 1 µg/mL | MIC of ceftibuten (CTB) (K. pneumoniae 304487; with inhibitor at 2 μg/mL): 0.25 µg/mL | MIC of cefalexin (LEX) (K. pneumoniae 304487; with inhibitor at 4 μg/mL): 2 µg/mL | MIC of cefdinir (CDR) (K. pneumoniae 304487; with inhibitor at 4 μg/mL): 2 µg/mL | MIC of cefixime (CFM) (K. pneumoniae 304487; with inhibitor at 4 μg/mL): 0.5 µg/mL | MIC of ceftibuten (CTB) (K. pneumoniae 304487; with inhibitor at 4 μg/mL): 0.25 µg/mL | MIC of cefalexin (LEX) (K. pneumoniae ESBL 8 #2): 0.5 µg/mL | MIC of cefdinir (CDR) (K. pneumoniae ESBL 8 #2): 0.5 µg/mL | MIC of cefixime (CFM) (K. pneumoniae ESBL 8 #2): 2 µg/mL | MIC of ceftibuten (CTB) (K. pneumoniae ESBL 8 #2): 0.125 µg/mL
